The source of these data is patent US5929032A, “Method for treating Schwann and colon cells in vitro” (Amgen Inc., priority 1996, dated 1999).

Series [1] deals with LIM 1215 cells. The series can be described thus: Marker protein expression, ACAS confocal image cytometer. Format: cell-based, human. Also noted: key to Marker Protein Expression: CEA / Marker Protein Expression: Integrin β4 / Marker Protein Expression: Villin: increased expression (+); down-regulated (-); unchanged (0). From the text:
Additional confirmation of the importance of this seven amino-acid sequence was obtained by scoring for various marker proteins on the LIM 1215 cells. An ACAS confocal image cytometer was used to detect a number of markers on the cells without detaching the cells from the culture dish, as is normally done for fluorescence activated cell sorting (FACS) analysis. […] The expression of a number of other markers was unchanged (0) by treatment with EGF-β. Analogous to the previous results characterizing gross, observable morphology changes, neither EGF-α nor EGF-β/α changed the levels of these marker proteins, while EGF-α/β changed the expression of the marker proteins in a manner similar to that seen with EGF-β.

Series [2] concerns LIM 1215 human colon epithelial cells. The series can be described thus: Crystal violet proliferation assay. In kind it is cell-based. The note with it: three days, low serum (0.05%) media, crystal violet absorbance at 595 nm. From the text:
FIG. 2. This figure is a graphical representation of the proliferative effect of the peptides of the invention on human colonic epithelial cells in vitro. These peptides are designated in the figure as EGF-β (SEQ ID NO: 2, above), represented by the closed circles, and as EGF-α/β (SEQ ID NO: 1, above), represented by the open circles. For comparison, two other peptides of equal length are included, designated as EGF-α and EGF-β/α, and represented by the closed squares and open squares, respectively. The latter two are homologs based on the EGF domain of extracellular NDF-heregulins and consist of the amino acid sequences shown further below in this text (SEQ ID NOS: 3 and 4, respectively). Proliferation is measured with a crystal violet dye which stains the cell protein and is indicative of cell number. […] The picomolar (pM) concentration of peptide used to treat the cells is shown on the horizontal axis.
a) Crystal Violet Proliferation Assay. The human colon epithelial cell line, LIM 1215 (Whitehead, R. H. et al., J. Natl. Cancer Inst. 4:759-765, 1985) was grown in RPMI-1640 media supplemented with 5% FBS, 1 μg/ml of hydrocortisone, 1 μg/ml of bovine insulin, 10 μM of alpha thioglycerol, and 1X PSG (0.292 mg/ml of 1-glutamine, 100 units/ml of penicillin G, and 100 μg/ml of streptomycin sulfate). At the start of the assay, the cells were 30% confluent and were proliferating rapidly. Cells were released by trypsin, washed with PBS, and seeded into 96-well plates at 5000 cells/well in low serum (0.05%) media (McCoy's-5A supplemented with 4 μg/ml of transferrin, 10 μg/ml of insulin, 10 mM of selenic acid, 4 nM of triiodothyronine, and 0.03% BSA). Dilutions of test peptide were added immediately on day zero; the total volume was 100 μl. Controls included no treatment and serial dilutions of FBS. The 96-well plates were then incubated for three days at 37° C. in a 5% CO2 atmosphere. The media were removed by aspiration and 30 μl of 2% crystal violet (Difco) in methanol was added to the cells for fifteen minutes of staining. Excess dye was washed away with distilled water. To each well 100 μl of 0.04N HCL in isopropanol was added and the dye was resolubilized by mixing. Absorbance was determined at 595 nm and the values were plotted as fold-stimulation over background (or no treatment).
b) Stimulation of colon cell proliferation. […] The chimeric peptides helped to pinpoint this determinant of activity to the seven residues corresponding to amino acids 222-228 of full length extracellular NDF/heregulin. […]

Series [3] has the same test system. The series can be described thus: Morphogenic activity: fluorescent actin staining (NBD phalloidin), confocal microscope. Format: cell-based. As to conditions: 420 picomolar peptide, three days, serum-free media. As for the experimental part: c) Staining of LIM 1215 human colon cells with fluorescent dye. LIM 1215 cells were grown in RPMI-1640 media supplemented with 5% FBS, 1 μg/ml of bovine insulin, 10 μm of alpha thioglycerol, and 1× PSG. At the time of assay, the cells were more than 30% confluent and were proliferating rapidly. The cells were seeded into 24-well plates at 25,000 cells/well in serum-free media (McCoy's-5A, supplemented with 4 μg/ml of transferrin, 10 μg/ml of insulin, 10 mM of selenic acid, […], and 0.03% BSA). Test peptides were added at a concentration of 420 picomolar immediately on day zero; the total volume was 1.0 ml. Controls included no treatment and serial dilutions of FBS. The 24-well plates were then incubated for three days at 37° C. and 5% CO2, after which the media were removed by aspiration and the cells were washed in 1.0 ml of PBS with 0.5% BSA. All subsequent washings were performed with this buffer. The cells were then fixed in Orthopermeafix (Ortho Chemicals Co.) for thirty minutes at room temperature, and were washed twice. Then 200 μl of a 10 nM NBD phalloidin fluorescent dye solution in PBS were added and the cells were incubated in the dark (wrapped in aluminum foil) for thirty minutes at room temperature. The cells were washed twice, and inspected using a confocal microscope.
d) Morphogenic activity of peptides on colon epithelial cells. Upon treatment of LIM 1215 cells with the EGF-β peptide, it was evident that the morphology of the cells changed dramatically. […] In the absence of treatment, the cells appeared small and rounded. […] Because the cells were proliferating rapidly in 5% FBS serum-containing media (FIG. 3), the unique morphology caused by the EGF-β peptide could not have been due solely to its ability to stimulate proliferation. Moreover, the difference in morphogenic activities between EGF-β and EGF-α must have originated in the last sixteen amino acids of the C-terminus, as this is the only difference in sequence between the two peptides.
Further localization of morphogenic activity was obtained by use of the chimeric peptides, EGF-β/α and EGF-α/β. […] Again, the only difference in sequence between these two peptides is the last seven amino acids of the C-terminal portion.

Series [4] concerns Schwann cells. The series can be described thus: Schwann cell proliferation (BrdU incorporation, NGFR staining). Format: cell-based, rat. The note with it: for percent of Schwann cells proliferating: BrdU for six hours after 24 h; for Schwann cell proliferation, comparison in words: versus EGF-β/α. On the procedure: The sciatic nerve from neonatal rats was used to generate a primary culture of Schwann cells. The cells were plated overnight in 10% serum without exposure to any growth factor. The following day, EGF-β, EGF-α/βand EGF-β/α were added at the concentrations in nanograms per milliliter(ng/ml) shown in Table 2, below. Twenty four hours later, BrdU was added to each test sample for six hours. BrdU is a thymidine analog which is incorporated into the DNA of dividing cells and can be detected by standard immunochemistry procedures. This agent thus provides a means for determining expansion of the total amount of DNA in a test sample and is a measure of whether cell proliferation has occurred. Upon the completion of the test period, Schwann cells were fixed and analyzed immunohistochemically. The cells were first stained for nerve growth factor receptor (NGFR), which is a known marker for Schwann cells in culture, followed by staining for BrdU. Cell counting was carried out as follows: in a given microscope field of view, all recognizable Schwann cells were counted, then the number of cells showing positive for BrdU staining were also counted. For each test sample (or well) two or three fields were counted, amounting to about 200 to 300 Schwann cells in all. The result is expressed in Table 2 as the percent of Schwann cells proliferating.

For series [5], the target named is endoproteinase Lys-C (Lysobacter enzymogenes, UniProt Q7M135). The series is described as follows: Digestion by endoproteinase Lys-C (peptide mapping). As to conditions: cleavage at lysine residue at position 211. From the text:
The initial studies referred to here utilized peptides based solely on sequences of the EGF-like domain of the aforementioned α2 and β1 forms of NDF/heregulin, that is to say, that portion of the extracellular protein from amino acid residue 177 to amino acid residue 228 (see FIG. 1 herein). […] The reason for this difference was not initially apparent. However, during peptide mapping studies of the EGF-like domains of NDF/heregulins, it was discovered that the α and β forms cleaved (degraded) at different rates when subjected to digestion by endoproteinase Lys-C. […] Moreover, this phenomenon seemed limited to the lysine residue at position 211. There was no apparent difference in the rate of cleavage between α and β at any other lysine residues in the N-terminal end of the EGF-like domain.

Where [6] appears, read: peptide concentration 0.1 ng/ml.
[7] abbreviates: peptide concentration 100 ng/ml.

Entries after “also recorded” stand apart in the source; their conditions may differ.

endoproteinase Lys-C, sequence (Q7M135 whole entry, the tested form may be a part): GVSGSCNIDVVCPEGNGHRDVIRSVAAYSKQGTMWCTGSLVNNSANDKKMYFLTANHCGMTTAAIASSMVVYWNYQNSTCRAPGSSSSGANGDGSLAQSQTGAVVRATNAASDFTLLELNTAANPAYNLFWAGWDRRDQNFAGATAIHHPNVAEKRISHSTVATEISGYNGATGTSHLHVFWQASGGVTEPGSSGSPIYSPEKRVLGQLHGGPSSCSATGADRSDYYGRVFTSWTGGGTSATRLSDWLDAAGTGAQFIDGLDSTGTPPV

With “EGF-β/α: comparison chimeric 52-residue peptide SHLVK-(B)-TENVPMK; β177-221/α222-228 of extracellular NDF/heregulin (SHLVKCAEKEKTFCVNGGECFMVKDLSNPSRYLCKCPNEFTGDRCTENVPMK) [reference compound]”, in series [1], the “Marker Protein Expression: CEA” value worked out at 0. Moreover, the “Marker Protein Expression: Integrin β4” value in series [1] stood at 0. Moreover, the “Marker Protein Expression: Villin” value in series [1] is 0. Besides, the “proliferation of LIM 1215 cells (fold stimulation, FIG. 2)” value in series [2] is listed as “No effect was seen; also recorded: did not show any detectable effect”. Besides, in series [3], the “morphological (morphogenic) changes of LIM 1215 cells” value (from here on “morphological (morphogenic) changes”) is given as “appear unchanged; also recorded: did not produce any noticeable change”. The “percent of Schwann cells proliferating” value in series [4] (setting [6]) was 1%; in series [4] (peptide concentration 1 ng/ml), 2%; in series [4] (peptide concentration 10 ng/ml), 5%; in series [4] (setting [7]) it was 10%.
“EGF-α: comparison 52-residue peptide SHLVK-(A)-TENVPMK; EGF-like domain (residues 177-228) of NDF/heregulin α2 (SHLVKCAEKEKTFCVNGGECFMVKDLSNPSRYLCKCQPGFTGARCTENVPMK) [reference compound]”: in series [1], the “Marker Protein Expression: CEA” value worked out at 0, the “Marker Protein Expression: Integrin β4” value was 0 and the “Marker Protein Expression: Villin” value worked out at 0. The “rate of cleavage by endoproteinase Lys-C” value in series [5] was “faster enzymatic cleavage”. Besides, the “proliferation of LIM 1215 cells (fold stimulation, FIG. 2)” value in series [2] is listed as “Some proliferation was obtained; also recorded: not as potent a mitogen”. The “morphological (morphogenic) changes” value in series [3] is recorded as “did not produce the same morphogenic changes”.
“EGF-α/β: chimeric 52-residue peptide SHLVK-(A)-QNYVMAS; α177-221/β222-228 of extracellular NDF/heregulin EGF-like domain (SHLVKCAEKEKTFCVNGGECFMVKDLSNPSRYLCKCQPGFTGARCQNYVMAS)”: in series [1], the “Marker Protein Expression: CEA” value is “+”. For the same substance, the “Marker Protein Expression: Integrin β4” value in series [1] is “+”. Moreover, the “Marker Protein Expression: Villin” value in series [1] is on record as “-”. Moreover, the “proliferation of LIM 1215 cells (fold stimulation, FIG. 2)” value in series [2] is listed as “best results for cell proliferation; also recorded: displayed significant mitogenic activity”. Besides, in series [3], the “morphological (morphogenic) changes” value was “evidence of cell development and maturation is seen; also recorded: caused apparent morphogenic changes”. Moreover, the “percent of Schwann cells proliferating” value is on record as 1% in series [4] (setting [6]), 10% in series [4] (peptide concentration 1 ng/ml), 10% in series [4] (peptide concentration 10 ng/ml) and 17% in series [4] (setting [7]). Moreover, the “Schwann cell proliferation, comparison in words” value in series [4] was “stimulated the proliferation of Schwann cells to a significantly greater extent than EGF-β/α”.
“EGF-β: 52-residue peptide SHLVK-(B)-QNYVMAS; EGF-like domain (residues 177-228) of NDF/heregulin β1 (SHLVKCAEKEKTFCVNGGECFMVKDLSNPSRYLCKCPNEFTGDRCQNYVMAS)”: in series [1], the “Marker Protein Expression: CEA” value is “+”, the “Marker Protein Expression: Integrin β4” value is given as “+”, the “Marker Protein Expression: Villin” value was “-” and the “expression of a number of other markers” value is listed as “unchanged”. The “rate of cleavage by endoproteinase Lys-C” value in series [5] was “more resistant to this enzyme and cleaved at a slower rate”. In addition, the “proliferation of LIM 1215 cells (fold stimulation, FIG. 2)” value in series [2] is “best results for cell proliferation; also recorded: stimulated the proliferation of LIM 1215 cells”. Further, the “morphological (morphogenic) changes” value in series [3] was “Evidence of cellular morphological changes is seen; also recorded: noticeable change in morphology, becoming enlarged and assuming a cobblestone-like appearance”. Further, in series [4] (setting [6]), the “percent of Schwann cells proliferating” value was 7.5%. For the same substance, the “percent of Schwann cells proliferating” value in series [4] (peptide concentration 1 ng/ml) is recorded as 13%. For the same substance, the “percent of Schwann cells proliferating” value in series [4] (peptide concentration 10 ng/ml) was 14%. In addition, in series [4] (setting [7]), the “percent of Schwann cells proliferating” value is listed as 19%. In addition, the “Schwann cell proliferation, comparison in words” value in series [4] is listed as “stimulated the proliferation of Schwann cells to a significantly greater extent than EGF-β/α”.
